According to PMC7914897, “Cytotoxic Potential of a-Azepano- and 3-Amino-3,4-SeCo-Triterpenoids” (International Journal of Molecular Sciences, 2021):

Assays:
HT29 (Colon cancer) = test: NCI-60 screen (SRB, 48 h); conditions: Homo sapiens
SK-MEL-5 (Melanoma) = test: NCI-60 screen (SRB, 48 h)
KM12 (Colon cancer) = test: NCI-60 screen (SRB, 48 h); conditions: Homo sapiens
CNS cancer subpanel = test: NCI-60 screen, subpanel; conditions: Homo sapiens
OVCAR-4 (Ovarian cancer) = test: NCI-60 screen (SRB, 48 h); type: cell-based; conditions: Homo sapiens
UACC-257 (Melanoma) = test: NCI-60 screen (SRB, 48 h); conditions: Homo sapiens
SF-268 (CNS cancer) = test: NCI-60 screen (SRB, 48 h); conditions: Homo sapiens
T-47D (Breast cancer) = test: NCI-60 screen (SRB, 48 h); conditions: Homo sapiens, T47D
RPMI-8226 (Leukemia) = test: NCI-60 screen (SRB, 48 h); conditions: Homo sapiens
A375 cells = test: Annexin V/PI flow cytometry; type: cell-based, human; conditions: A375, 48 h, 2 × EC50
Description: Due to its good cytotoxic properties, compound 11 was subjected to flow cytometric measurements (Annexin V/PI assay).
Thereby, the BL1-A signal corresponds to the FITC signal for annexin V (x-axis) while PI is detected at BL3-A (y-axis). Thus, cells in R1 correspond to necrotic cells, those in R2 to late apoptosis, cells in R3 are viable cells, and cells in R4 have died from apoptosis.
Approximately 600,000 cells (A375) were seeded in cell culture flasks and were allowed to grow for 1 day. After removing of the medium, the substance loaded medium was added, and the flasks were incubated for 48 h. All cells were harvested, centrifuged (1200 rpm, 5 min), and washed twice (PBS (w/w)). Approximately 100,000 cells were washed with annexin V bounding buffer (BD Biosciences®) and treated with a propidium iodide solution (3 μL, 1 mg/mL) and annexin V (5 μL, BD Biosciences®) for 15 min at room temperature in the dark. After adding annexin V bounding buffer (400 μL) the suspension was submitted to a FACS measurement.

HS 578T (Breast cancer) = test: NCI-60 screen (SRB, 48 h); conditions: Homo sapiens
786-0 (Renal cancer) = test: NCI-60 screen (SRB, 48 h); conditions: Homo sapiens
MALME-3M (Melanoma) = test: NCI-60 screen (SRB, 48 h); conditions: Homo sapiens
HL-60(TB) (Leukemia) = test: NCI-60 screen (SRB, 48 h); type: cell-based; conditions: Homo sapiens
SF-539 (CNS cancer) = test: NCI-60 screen (SRB, 48 h); conditions: Homo sapiens
OVCAR-3 (Ovarian cancer) = conditions: OVCAR-3, 1 dose 10 µM
[1] = tested on: NCI/ADR-RES (Ovarian cancer); test: NCI-60 screen (SRB, 48 h); conditions: Homo sapiens
SK-MEL-28 (Melanoma) = test: NCI-60 screen (SRB, 48 h); conditions: Homo sapiens
MDA-MB-435 (Melanoma) = test: NCI-60 screen (SRB, 48 h); type: cell-based; conditions: Homo sapiens
EKVX (NSC lung cancer) = test: NCI-60 screen (SRB, 48 h); conditions: Homo sapiens
OVCAR-8 (Ovarian cancer) = test: NCI-60 screen (SRB, 48 h); conditions: Homo sapiens
[2] = tested on: NCI-H522 (NSC lung cancer); test: NCI-60 screen (SRB, 48 h); conditions: Homo sapiens
Prostate cancer subpanel = test: NCI-60 screen, subpanel; conditions: Homo sapiens

C=C(C)[C@@H]1CC[C@]2(C(=O)N[C@H](CO)Cc3ccccc3)CC[C@]3(C)[C@H](CC[C@@H]4[C@@]5(C)CCCNC(C)(C)[C@@H]5CC[C@]43C)[C@@H]12 [Compound 11]
GI50 (HT29 (Colon cancer); HT-29): 240 nM | IC (TGI) (HT29 (Colon cancer); HT-29, 48 h, read-out: TGI): 540 nM | CC50 (HT29 (Colon cancer); HT-29, read-out: LC50): 1750 nM | GI50 (SK-MEL-5 (Melanoma); Homo sapiens, SK-MEL-5): 1670 nM | IC (TGI) (SK-MEL-5 (Melanoma); Homo sapiens, SK-MEL-5, 48 h, read-out: TGI): 3070 nM | CC50 (SK-MEL-5 (Melanoma); Homo sapiens, SK-MEL-5, read-out: LC50): 5640 nM | Growth % of the Most Sensitive Cell Lines (SK-MEL-5 (Melanoma); SK-MEL-5, 1 dose 10 µM): −95.48% | GI50 (KM12 (Colon cancer); KM12): 1470 nM | IC (TGI) (KM12 (Colon cancer); KM12, 48 h, read-out: TGI): 2910 nM | CC50 (KM12 (Colon cancer); KM12, read-out: LC50): 5780 nM | IC (TGI) (CNS cancer subpanel; 48 h, read-out: TGI MG_MID): 3080 nM | GI50 (CNS cancer subpanel; read-out: GI50 MG_MID): 1510 nM | CC50 (CNS cancer subpanel; read-out: LC50 MG_MID): 5720 nM | IC (TGI) (OVCAR-4 (Ovarian cancer); OVCAR-4, 48 h): 940 nM | GI50 (OVCAR-4 (Ovarian cancer); OVCAR-4, read-out: GI50): 240 nM | GI50 (UACC-257 (Melanoma); UACC-257): 1780 nM | IC (TGI) (UACC-257 (Melanoma); UACC-257, 48 h, read-out: TGI): 3340 nM | CC50 (UACC-257 (Melanoma); UACC-257, read-out: LC50): 6250 nM | GI50 (SF-268 (CNS cancer); SF-268): 1560 nM | IC (TGI) (SF-268 (CNS cancer); SF-268, 48 h, read-out: TGI): 3390 nM | GI50 (T-47D (Breast cancer)): 1800 nM | IC (TGI) (T-47D (Breast cancer); 48 h, read-out: TGI): 4020 nM | GI50 (RPMI-8226 (Leukemia); RPMI-8226): 240 nM | IC (TGI) (RPMI-8226 (Leukemia); RPMI-8226, 48 h, read-out: TGI): 630 nM | cells died by apoptosis (R4) (A375 cells): 44.3% | necrotic cells (R1) (A375 cells): 1.1% | GI50 (HS 578T (Breast cancer)): 1610 nM | IC (TGI) (HS 578T (Breast cancer); 48 h, read-out: TGI): 3780 nM | GI50 (786-0 (Renal cancer); 786-0): 400 nM | IC (TGI) (786-0 (Renal cancer); 786-0, 48 h, read-out: TGI): 1600 nM | GI50 (MALME-3M (Melanoma)): 1420 nM | GI50 (HL-60(TB) (Leukemia)): 200 nM | IC (TGI) (HL-60(TB) (Leukemia); 48 h): 460 nM | GI50 (SF-539 (CNS cancer); SF-539): 1730 nM | IC (TGI) (SF-539 (CNS cancer); SF-539, 48 h, read-out: TGI): 3190 nM | Growth % of the Most Sensitive Cell Lines (OVCAR-3 (Ovarian cancer)): −95.88% | GI50 [1]: 1350 nM | IC (TGI) ([1]; 48 h, read-out: TGI): 3010 nM | GI50 (SK-MEL-28 (Melanoma); SK-MEL-28): 1550 nM | IC (TGI) (SK-MEL-28 (Melanoma); SK-MEL-28, 48 h, read-out: TGI): 3030 nM | IC (TGI) (MDA-MB-435 (Melanoma); MDA-MB-435, 48 h, read-out: TGI): 2360 nM | GI50 (MDA-MB-435 (Melanoma); MDA-MB-435, read-out: GI50): 1100 nM | GI50 (EKVX (NSC lung cancer)): 1730 nM | IC (TGI) (EKVX (NSC lung cancer); 48 h, read-out: TGI): 3490 nM | GI50 (OVCAR-8 (Ovarian cancer); OVCAR-8): 1120 nM | IC (TGI) (OVCAR-8 (Ovarian cancer); OVCAR-8, 48 h, read-out: TGI): 2800 nM | GI50 ([2]; NCI-H522): 1750 nM | IC (TGI) ([2]; NCI-H522, 48 h, read-out: TGI): 3350 nM | CC50 ([2]; NCI-H522, read-out: LC50): 6400 nM | IC (TGI) (Prostate cancer subpanel; 48 h, read-out: TGI MG_MID): 2750 nM | GI50 (Prostate cancer subpanel; read-out: GI50 MG_MID): 1320 nM
